Measurements published in patent publication US20240150362A1, “Substituted Pyrrolotriazines” (Molecure S.A., priority 2022, published 2024).
Counter-ions that a name gives are not always drawn.

Target: T1, full-length USP7 (Homo sapiens, UniProt Q93009)
T1 construct: A 45 μl reaction volume containing full-length USP7 (0.5-1.0 nM)
Test: Enzymatic assay to determine % inhibition of USP7 activity at 1 μM test compound (Ubiquitin-Rhodamine 110 cleavage)
Assay type: biochemical
Conditions: 1 μM of the test compound; given where IC50 has not been determined yet; mean of two repetitions
Procedure, shortened: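 Full-length USP7 (0.5-1.0 nM) was preincubated 15 min with DTT in HEPES pH 7.5 buffer, and compound was added at a final 1 μM. Ubiquitin-Rhodamine 110 (0.5 μM final) was then cleaved for 30-60 min at 25° C., read at 485/535 nm. % inhibition is the mean of two repetitions.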

T1 sequence (Q93009 whole entry): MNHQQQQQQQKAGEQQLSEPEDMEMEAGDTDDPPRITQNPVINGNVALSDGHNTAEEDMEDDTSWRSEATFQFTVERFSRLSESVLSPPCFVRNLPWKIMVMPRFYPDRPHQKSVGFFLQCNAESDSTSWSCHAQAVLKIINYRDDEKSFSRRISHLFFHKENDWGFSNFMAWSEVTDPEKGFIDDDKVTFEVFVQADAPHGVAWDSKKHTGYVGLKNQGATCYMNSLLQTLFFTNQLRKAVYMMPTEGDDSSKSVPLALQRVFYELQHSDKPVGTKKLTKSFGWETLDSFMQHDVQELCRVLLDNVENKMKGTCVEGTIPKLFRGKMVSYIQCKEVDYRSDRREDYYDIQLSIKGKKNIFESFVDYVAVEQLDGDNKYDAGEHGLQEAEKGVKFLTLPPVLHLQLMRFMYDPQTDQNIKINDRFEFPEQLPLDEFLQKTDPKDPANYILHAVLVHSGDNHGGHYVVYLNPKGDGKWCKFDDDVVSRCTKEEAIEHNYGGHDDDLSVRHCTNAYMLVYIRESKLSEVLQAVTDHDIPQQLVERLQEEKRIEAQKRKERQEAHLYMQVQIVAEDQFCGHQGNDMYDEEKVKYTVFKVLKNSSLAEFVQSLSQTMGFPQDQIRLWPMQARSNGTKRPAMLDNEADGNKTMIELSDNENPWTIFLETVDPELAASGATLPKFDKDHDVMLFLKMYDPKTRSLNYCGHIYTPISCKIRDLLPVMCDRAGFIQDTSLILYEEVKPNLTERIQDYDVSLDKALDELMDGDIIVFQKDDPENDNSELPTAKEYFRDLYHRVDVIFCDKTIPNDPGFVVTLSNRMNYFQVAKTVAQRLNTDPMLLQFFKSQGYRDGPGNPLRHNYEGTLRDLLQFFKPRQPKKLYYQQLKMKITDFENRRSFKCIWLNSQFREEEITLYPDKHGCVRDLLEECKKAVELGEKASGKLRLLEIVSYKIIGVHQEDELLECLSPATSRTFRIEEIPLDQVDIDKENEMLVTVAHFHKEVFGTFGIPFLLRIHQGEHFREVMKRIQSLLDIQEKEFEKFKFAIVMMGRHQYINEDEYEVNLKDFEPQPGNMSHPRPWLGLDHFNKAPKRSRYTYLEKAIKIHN

SMILES | inhibition at 1 µM
O=c1ccn(CC(F)(F)F)c(=O)n1Cc1cc2c(-c3cc(Cl)cc4c3N(C3CCNC3)CCC4)ncnn2c1 (stereo not drawn) [Example 64, 3-((4-(6-chloro-1-(pyrrolidin-3-yl)-1,2,3,4-tetrahydroquinolin-8-yl)pyrrolo[2,1-f][1,2,4]triazin-6-yl)methyl)-1-(2,2,2-trifluoroethyl)pyrimidine-2,4(1H,3H)-dione hydrochloride] | > 70%
CC1(C)C2C(=O)N(Cc3cc4c(-c5cc(Cl)cc6c5N(C[C@@H]5CNCCO5)CCC6)ncnn4c3)C(=O)C21 (stereo partly drawn) [Example 65, 3-((4-(6-chloro-1-(((S)-morpholin-2-yl)methyl)-1,2,3,4-tetrahydroquinolin-8-yl)pyrrolo[2,1-f][1,2,4]triazin-6-yl)methyl)-6,6-dimethyl-3-azabicyclo[3.1.0]hexane-2,4-dione hydrochloride] | 20 to 49%
CC1(C)C2C(=O)N(Cc3cc4c(-c5cc(Cl)cc6c5N(C5CNC5)CCC6)ncnn4c3)C(=O)C21 (stereo not drawn) [Example 69, 3-((4-(1-(azetidin-3-yl)-6-chloro-1,2,3,4-tetrahydroquinolin-8-yl)pyrrolo[2,1-f][1,2,4]triazin-6-yl)methyl)-6,6-dimethyl-3-azabicyclo[3.1.0]hexane-2,4-dione hydrochloride] | > 70%
Cc1cc(Cl)cc(-c2ncnn3cc(CN4C(=O)C5C(C4=O)C5(C)C)cc23)c1CC1CNC2(CC2)CO1 (stereo not drawn) [Example 71, 3-((4-(2-((7-oxa-4-azaspiro[2.5]octan-6-yl)methyl)-5-chloro-3-methylphenyl)pyrrolo[2,1-f][1,2,4]triazin-6-yl)methyl)-6,6-dimethyl-3-azabicyclo[3.1.0]hexane-2,4-dione 2,2,2-trifluoroacetate] | 20 to 49%
Cc1cc(Cl)cc(-c2ncnn3cc(CN4C(=O)C5C(C4=O)C5(C)C)cc23)c1CC1(C)CNCC(C)(C)O1 (stereo not drawn) [Example 72, 3-((4-(5-chloro-3-methyl-2-((2,6,6-trimethylmorpholin-2-yl)methyl)phenyl)pyrrolo[2,1-f][1,2,4]triazin-6-yl)methyl)-6,6-dimethyl-3-azabicyclo[3.1.0]hexane-2,4-dione hydrochloride] | > 70%
Cc1cc(Cl)cc(-c2ncnn3cc(CN4C(=O)C5C(C4=O)C5(C)C)cc23)c1NCC1CCNCC1 (stereo not drawn) [Example 73, 3-((4-(5-chloro-3-methyl-2-((piperidin-4-ylmethyl)amino)phenyl)pyrrolo[2,1-f][1,2,4]triazin-6-yl)methyl)-6,6-dimethyl-3-azabicyclo[3.1.0]hexane-2,4-dione dihydrochloride] | > 70%
Cc1cc(Cl)cc(-c2ncnn3cc(CN4C(=O)C5C(C4=O)C5(C)C)cc23)c1NCC1CCCNC1 (stereo not drawn) [Example 79, 3-((4-(5-chloro-3-methyl-2-((piperidin-3-ylmethyl)amino)phenyl)pyrrolo[2,1-f][1,2,4]triazin-6-yl)methyl)-6,6-dimethyl-3-azabicyclo[3.1.0]hexane-2,4-dione dihydrochloride] | 50 to 70%
Cc1cc(Cl)cc(-c2ncnn3cc(CN4C(=O)C5C(C4=O)C5(C)C)cc23)c1NC[C@@H]1CNCCO1 (stereo partly drawn) [Example 81, 3-((4-(5-chloro-3-methyl-2-((((S)-morpholin-2-yl)methyl)amino)phenyl)pyrrolo[2,1-f][1,2,4]triazin-6-yl)methyl)-6,6-dimethyl-3-azabicyclo[3.1.0]hexane-2,4-dione dihydrochloride] | 20 to 49%
Cc1cc(Cl)cc(-c2ncnn3cc(CN4C(=O)C5C(C4=O)C5(C)C)cc23)c1C1=CCNCC1 (stereo not drawn) [Example 84, 3-((4-(5-chloro-3-methyl-2-(1,2,3,6-tetrahydropyridin-4-yl)phenyl)pyrrolo[2,1-f][1,2,4]triazin-6-yl)methyl)-6,6-dimethyl-3-azabicyclo[3.1.0]hexane-2,4-dione hydrochloride] | < 20%
CC1(C)C2C(=O)N(Cc3cc4c(-c5cc(Cl)ccc5N5CCNCC5)ncnn4c3)C(=O)C21 (stereo not drawn) [Example 85, 3-((4-(5-chloro-2-(piperazin-1-yl)phenyl)pyrrolo[2,1-f][1,2,4]triazin-6-yl)methyl)-6,6-dimethyl-3-azabicyclo[3.1.0]hexane-2,4-dione hydrochloride] | < 20%
CC1(C)C2C(=O)N(Cc3cc4c(-c5cc(Cl)ccc5N5CC[C@H](N)C5)ncnn4c3)C(=O)C21 (stereo partly drawn) [Example 86, 3-((4-(2-((S)-3-aminopyrrolidin-1-yl)-5-chlorophenyl)pyrrolo[2,1-f][1,2,4]triazin-6-yl)methyl)-6,6-dimethyl-3-azabicyclo[3.1.0]hexane-2,4-dione hydrochloride] | 20 to 49%
CC1(C)C2C(=O)N(Cc3cc4c(-c5cc(Cl)ccc5N5CC[C@@H](N)C5)ncnn4c3)C(=O)C21 (stereo partly drawn) [Example 87, 3-((4-(2-((R)-3-aminopyrrolidin-1-yl)-5-chlorophenyl)pyrrolo[2,1-f][1,2,4]triazin-6-yl)methyl)-6,6-dimethyl-3-azabicyclo[3.1.0]hexane-2,4-dione hydrochloride] | 20 to 49%
Cc1cc(Cl)cc(-c2ncnn3cc(Cn4c(=O)ccn(C)c4=O)cc23)c1C1=CCNCC1 [Example 88, 3-((4-(5-chloro-3-methyl-2-(1,2,3,6-tetrahydropyridin-4-yl)phenyl)pyrrolo[2,1-f][1,2,4]triazin-6-yl)methyl)-1-methylpyrimidine-2,4(1H,3H)-dione hydrochloride] | < 20%
CC1(C)C2C(=O)N(Cc3cc4c(-c5cc(Cl)ccc5N5C[C@H]6CCN[C@H]6C5)ncnn4c3)C(=O)C21 (stereo partly drawn) [Example 90, 3-((4-(5-chloro-2-((3aR,6aR)-hexahydropyrrolo[3,4-b]pyrrol-5(1H)-yl)phenyl)pyrrolo[2,1-f][1,2,4]triazin-6-yl)methyl)-6,6-dimethyl-3-azabicyclo[3.1.0]hexane-2,4-dione hydrochloride] | 50 to 70%
CC1(C)C2C(=O)N(Cc3cc4c(-c5cc(Cl)ccc5N5CCC6(CCCN6)C5)ncnn4c3)C(=O)C21 (stereo not drawn) [Example 91, 3-((4-(5-chloro-2-(1,7-diazaspiro[4.4]nonan-7-yl)phenyl)pyrrolo[2,1-f][1,2,4]triazin-6-yl)methyl)-6,6-dimethyl-3-azabicyclo[3.1.0]hexane-2,4-dione hydrochloride] | 20 to 49%
CC1(C)C2C(=O)N(Cc3cc4c(-c5cc(Cl)cc6c5N(C5CCNC5)CC5CC65)ncnn4c3)C(=O)C21 (stereo not drawn) [Example 92, 3-((4-(6-chloro-3-(pyrrolidin-3-yl)-1a,2,3,7b-tetrahydro-1H-cyclopropa[c]quinolin-4-yl)pyrrolo[2,1-f][1,2,4]triazin-6-yl)methyl)-6,6-dimethyl-3-azabicyclo[3.1.0]hexane-2,4-dione hydrochloride] | 50 to 70%
CC1(C)C2C(=O)N(Cc3cc4c(-c5cc(Cl)ccc5N5C[C@@H]6CCN[C@@H]6C5)ncnn4c3)C(=O)C21 (stereo partly drawn) [Example 96, 3-((4-(5-chloro-2-((3aS,6aS)-hexahydropyrrolo[3,4-b]pyrrol-5(1H)-yl)phenyl)pyrrolo[2,1-f][1,2,4]triazin-6-yl)methyl)-6,6-dimethyl-3-azabicyclo[3.1.0]hexane-2,4-dione hydrochloride] | < 20%
CC1(C)C2C(=O)N(Cc3cc4c(-c5cc(Cl)ccc5N5CC6CNCC6C5)ncnn4c3)C(=O)C21 (stereo not drawn) [Example 97, 3-((4-(5-chloro-2-(hexahydropyrrolo[3,4-c]pyrrol-2(1H)-yl)phenyl)pyrrolo[2,1-f][1,2,4]triazin-6-yl)methyl)-6,6-dimethyl-3-azabicyclo[3.1.0]hexane-2,4-dione hydrochloride] | < 20%
Cc1cc(Cl)cc(-c2ncnn3cc(CN4C(=O)C5C(C4=O)C5(C)C)cc23)c1CN1CCC2(CC1)CNC2 (stereo not drawn) [Example 102, 3-((4-(2-((2,7-diazaspiro[3.5]nonan-7-yl)methyl)-5-chloro-3-methylphenyl)pyrrolo[2,1-f][1,2,4]triazin-6-yl)methyl)-6,6-dimethyl-3-azabicyclo[3.1.0]hexane-2,4-dione hydrochloride] | 20 to 49%
CN[C@H]1CCCN(c2ccc(Cl)cc2-c2ncnn3cc(CN4C(=O)C5C(C4=O)C5(C)C)cc23)C1 (stereo partly drawn) [Example 112, 3-((4-(5-chloro-2-((S)-3-(methylamino)piperidin-1-yl)phenyl)pyrrolo[2,1-f][1,2,4]triazin-6-yl)methyl)-6,6-dimethyl-3-azabicyclo[3.1.0]hexane-2,4-dione hydrochloride] | 50 to 70%
Cn1ccc(=O)n(Cc2cc3c(-c4cc(Cl)cc(F)c4CC4CNCCO4)ncnn3c2)c1=O (stereo not drawn) [Example 116, 3-((4-(5-chloro-3-fluoro-2-(morpholin-2-ylmethyl)phenyl)pyrrolo[2,1-f][1,2,4]triazin-6-yl)methyl)-1-methylpyrimidine-2,4(1H,3H)-dione hydrochloride] | 50 to 70%
Cc1cc(Cl)cc(-c2ncnn3cc(Cn4c(=O)ccn(C)c4=O)cc23)c1CC1CNC[C@H](C)O1 (stereo partly drawn) [Example 122, 3-((4-(5-chloro-3-methyl-2-(((6S)-6-methylmorpholin-2-yl)methyl)phenyl)pyrrolo[2,1-f][1,2,4]triazin-6-yl)methyl)-1-methylpyrimidine-2,4(1H,3H)-dione dihydrochloride] | 20 to 49%
O=c1cc[nH]c(=O)n1Cc1cc2c(-c3cc(Cl)cc4ccn(CC5(F)CCNCC5)c34)nc(Cl)nn2c1 [Example 123, 3-((2-chloro-4-(5-chloro-1-((4-fluoropiperidin-4-yl)methyl)-1H-indol-7-yl)pyrrolo[2,1-f][1,2,4]triazin-6-yl)methyl)pyrimidine-2,4(1H,3H)-dione hydrochloride] | < 20%
CC(C)n1ccc(=O)n(Cc2cc3c(-c4cc(Cl)cc5ccn(CC6(F)CCNCC6)c45)ncnn3c2)c1=O [Example 127, 3-((4-(5-chloro-1-((4-fluoropiperidin-4-yl)methyl)-1H-indol-7-yl)pyrrolo[2,1-f][1,2,4]triazin-6-yl)methyl)-1-isopropylpyrimidine-2,4(1H,3H)-dione hydrochloride] | > 70%
